# According to US10758549B2, “Compositions of obeticholic acid and methods of use” (Intercept Pharmaceuticals, Inc., priority 2015, dated 2020):
# Where two headings read alike, the source gives them in different places.
# What was measured:
# PBC patients = assay: Example 7: 12-week placebo-controlled OCA monotherapy study (10 mg, 50 mg) in PBC; format: in vivo, human; conditions: for ALP Change from Baseline to Day 85/ET, Mean / ALP Level at Day 85/ET, Mean / ALP Level at Day 85/ET, Median / Percent Change in ALP from Baseline to EOS, Mean (SD) / Percent Change in ALP from Baseline to EOS, Median / GGT level at Day 85/ET, mean (SD): ITT
# Experimental: This example describes a study of two doses of OCA (10 mg and 50 mg) vs. placebo for a period of 12 weeks (85 days). The study was completed by 48 patients and PK data are available for 34 patients. All patients returned to the study site for 4 visits (Day 15, Day 29, Day 57, and Day 85) for evaluations of efficacy, safety, tolerability, and compliance with investigational product.
# Key Exclusion Criteria • 1. The following drugs were contraindicated: ursodeoxycholic acid (UDCA), colchicine, methotrexate, azathioprine, or systemic corticosteroids • 2. Conjugated bilirubin>2×ULN; ALT or AST>5×ULN and serum creatinine>133 μmol/L (1.5 mg/dL) • 3. History or presence of hepatic decompensation • 4. History of presence of concomitant liver diseases such as Hepatitis B or C; HIV; primary sclerosing cholangitis, alcoholic liver disease, definite autoimmune liver disease or biopsy proven nonalcoholic steatohepatitis (NASH).
# The percent change (%) in serum ALP from Baseline to End of Study (EOS) was monitored. The baseline value was the mean of the pretreatment screening and day 0 evaluations. The EOS value was Day 85/ET or the last observed ALP value on treatment.
# Absolute changes in serum ALP levels were monitored from Baseline to Day 15, Day 29, Day 57, Day 85/ET and Follow-Up (Day 99). The percentage of patients was calculated who met the definition of PBC responder criteria applying the Paris I, Toronto I, Toronto II, Toronto III, Toronto IV, Mayo II, and Barcelona disease prognostic risk criteria at Day 85/ET. Each patient was tested for absolute and percent change in serum aspartate aminotransferase (AST), alanine aminotransferase (ALT), gamma-glutamyl transferase (GGT), and conjugated (direct) bilirubin values from Baseline to Day 15, Day 29, Day 57, Day 85/ET and Follow-Up (Day 99).
# [1] = Example 10: clinical pharmacology / pharmacokinetics of OCA; format: in vivo, human; conditions: for Urinary excretion / dose excreted in feces: radiolabeled ([^14C]) obeticholic acid
# Experimental: This example describes clinical pharmacology and dosing of obeticholic acid (OCA—including obeticholic acid compositions described herein). […] OCA can be supplied as an oral tablet containing obeticholic acid in a formulation as described herein.
# Median Tmax for glyco-OCA and tauro-OCA is 10 hours.
# Following an oral administration of 25 mg [^14C]-OCA, about 87% of the dose is excreted in feces through biliary secretion. Less than 3% of the dose is excreted in the urine with no detection of OCA.
# Surface area by BET = format: physicochemical
# Experimental: The impact of jet-milling on API particle size and surface area is detailed in Table 4-1 and Table 4-2, respectively. Surface area was tested per a BET (Brunauer, Emmett, and Teller theory). The BET method for analyzing surface area is based on adsorption of gas on a surface. The amount of gas adsorbed at a given pressure allows a determination of the surface area.
# patients with NASH = assay: Example 12: double-blind study of daily 25 mg OCA in NASH, high risk subgroup; format: in vivo, human; conditions: week 72, 25 mg OCA daily
# Experimental: This example describes a clinical, double-blind study examining the effect of daily 25 mg OCA on nonalcoholic steatohepatitis (NASH). OCA lead to biopsy proven improvements in liver fibrosis. Patients with NASH who have elevated NAFLD activity scores (NAS) and fibrosis are at a higher risk of progression to cirrhosis and liver related mortality.
# The high risk subgroup was defined as patients with a baseline NAS≥4, baseline fibrosis stage 2 or 3 or baseline fibrosis stage 1 with a comorbidity (type 2 diabetes, BMI≥30 kg/m^2 or ALT≥60 U/L) (OCA n=114; Placebo n=112). The Fibrosis-4 (FIB-4), the aspartate transaminase to platelet ratio (APRI), and the NAFLD fibrosis score (NFS) were all examined between baseline through 72 weeks of treatment and for an additional 24 weeks of follow up.
# Plasma protein binding = format: in vitro ADME; conditions: human
# CYP2C8 = biological target: T1, CYP2C8 (Homo sapiens, UniProt P10632); assay: In vitro studies: CYP inhibition; format: in vitro ADME
# T1 sequence (P10632 1-490): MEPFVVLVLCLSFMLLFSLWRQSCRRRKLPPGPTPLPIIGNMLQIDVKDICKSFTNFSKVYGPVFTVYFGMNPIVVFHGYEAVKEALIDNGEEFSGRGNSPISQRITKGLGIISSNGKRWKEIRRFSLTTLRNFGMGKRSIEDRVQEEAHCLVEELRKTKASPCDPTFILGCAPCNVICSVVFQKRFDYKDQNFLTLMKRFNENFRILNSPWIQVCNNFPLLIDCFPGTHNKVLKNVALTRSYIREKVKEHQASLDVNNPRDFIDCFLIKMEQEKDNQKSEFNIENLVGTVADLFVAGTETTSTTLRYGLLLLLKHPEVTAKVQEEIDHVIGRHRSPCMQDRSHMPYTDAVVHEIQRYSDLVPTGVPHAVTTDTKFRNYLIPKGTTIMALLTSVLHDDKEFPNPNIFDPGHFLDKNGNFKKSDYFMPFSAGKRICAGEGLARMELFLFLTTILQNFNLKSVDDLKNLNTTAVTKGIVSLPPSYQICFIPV
# [2] = oral, listed as obeticholic acid
smiles,measurement,setting,value
"CC[C@H]1[C@@H](O)[C@@H]2[C@H](CC[C@]3(C)[C@@H]([C@H](C)CCC(=O)O)CC[C@@H]23)[C@@]2(C)CC[C@@H](O)C[C@@H]12 [OCA, 3α,7α-dihydroxy-6α-ethyl-5β-cholan-24-oic acid]",mean change in LDL-C at Day 85/ET,PBC patients; OCA 10 mg,+0.10 (0.58) mmol/L
same,"ALP Change from Baseline to Day 85/ET, Mean",PBC patients; OCA 10 mg (n = 20),−233.5 U/L
same,"ALP Level at Day 85/ET, Mean",PBC patients; OCA 10 mg (n = 20),228.1 U/L
same,"ALP Level at Day 85/ET, Median",PBC patients; OCA 10 mg (n = 20),196.5 U/L
same,"Percent Change in ALP from Baseline to EOS, Mean (SD)",PBC patients; OCA 10 mg (n = 20),−44.5 (24.4) %
same,"Percent Change in ALP from Baseline to EOS, Median",PBC patients; OCA 10 mg (n = 20),−53.9%
same,"GGT level at Day 85/ET, mean (SD)","PBC patients; OCA 10 mg, baseline 653 (370) U/L",184 (203) U/L
same,"HDL-C at end of treatment (ET), mean (SD)","PBC patients; OCA 10 mg, baseline 1.73 (0.45) mmol/L",1.57 (0.46) mmol/L
same,"AST level at Day 85/ET, mean (SD)","PBC patients; OCA 10 mg, baseline 67 (33) U/L",54 (40) U/L
same,"ALT level at Day 85/ET, mean (SD)","PBC patients; OCA 10 mg, baseline 86 (44) U/L",54 (41) U/L
same,mean change in LDL-C at Day 85/ET,PBC patients; OCA 50 mg,+0.23 (0.52) mmol/L
same,"ALP Change from Baseline to Day 85/ET, Mean",PBC patients; OCA 50 mg (n = 16),−161.3 U/L
same,"ALP Level at Day 85/ET, Mean",PBC patients; OCA 50 mg (n = 16),269.8 U/L
same,"ALP Level at Day 85/ET, Median",PBC patients; OCA 50 mg (n = 16),197.5 U/L
same,"Percent Change in ALP from Baseline to EOS, Mean (SD)",PBC patients; OCA 50 mg (n = 16),−37.6 (21.0) %
same,"Percent Change in ALP from Baseline to EOS, Median",PBC patients; OCA 50 mg (n = 16),−37.2%
same,"GGT level at Day 85/ET, mean (SD)","PBC patients; OCA 50 mg, baseline 455 (418) U/L",202 (300) U/L
same,"HDL-C at end of treatment (ET), mean (SD)","PBC patients; OCA 50 mg, baseline 1.95 (0.55) mmol/L",1.86 (0.56) mmol/L
same,"AST level at Day 85/ET, mean (SD)","PBC patients; OCA 50 mg, baseline 66 (29) U/L",56 (28) U/L
same,"ALT level at Day 85/ET, mean (SD)","PBC patients; OCA 50 mg, baseline 71 (38) U/L",49 (29) U/L
same,dropout rate,"PBC patients; OCA 50 mg, early in treatment (<1 month)",44%
same,"ALP reduction, on average","PBC patients; each OCA dose (10 mg and 50 mg monotherapy), early stage PBC",approximately 40%
same,effect of food on PK,[1]; 10 mg OCA,does not have a clinically relevant effect
same,increase in obeticholic acid exposure,[1]; 20 mg omeprazole once daily with obeticholic acid 10 mg once daily,less than 1.2 fold
same,systemic exposure versus dose,"[1]; 5, 10, and 25 mg once daily for 14 days",increase dose proportionally
same,Vd,"[1]; human, in vivo, read-out: volume of distribution",613 L
same,Tmax,"[1]; human, plasma, multiple oral doses of OCA 10 mg once daily, read-out: median time (Tmax) of peak plasma concentrations",~1.5 h
same,half-life,"[1]; human, plasma, oral, read-out: effective half-life (converted)",~24 h
same,Tmax,"[1]; human, plasma, oral, read-out: median time (tmax) of peak plasma concentrations",~2 h
same,Urinary excretion,[1]; oral,Less than 3%
same,dose excreted in feces,[1]; oral,about 87%
same,Urinary excretion,[1]; [2],less than 3%
same,dose excreted in feces,[1]; [2],greater than 85%
same,surface area increase after jet-milling,Surface area by BET,approximately 3 fold
same,APRI OCA-Placebo LS Mean change,"patients with NASH; 95% CI=[−0.32, −0.15]",−0.23
same,NFS OCA-Placebo LS Mean change,"patients with NASH; 95% CI=[−0.45, −0.10]",−0.28
same,FIB-4 OCA-Placebo LS Mean change,"patients with NASH; 95% CI=[−0.47, −0.19]",−0.33
same,fraction unbound,Plasma protein binding,< 0.01
same,inhibition of CYP2C8,CYP2C8,not an inhibitor
